Test results as given in patent US11986471B2, “Compounds and methods of use” (Tango Therapeutics, Inc., priority 2018, dated 2024).

Assays:
PRMT5 [1] = biological target: T1, PRMT5 (Homo sapiens, UniProt O14744); experiment: PRMT5 IC50 assay in the presence of MTA as cofactor; assay type: biochemical; conditions: for IC50: PRMT5, MTA as cofactor; for SAM/MTA Ratio: ratio between Ki in the presence of SAM and Ki in the presence of MTA
T1 construct: purchased Viva (custom protein)
How it was run: (§1)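 Three cofactor conditions are run: SAM-bound, MTA-bound and cofactor-free enzyme. IC50 is read from each; for the SAM and MTA arms it is divided by 1.5 and 13.5 respectively to give Ki.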

HAP1 MTAP-intact = experiment: SDMA in-cell western assay, HAP1 MTAP-intact cell line; assay type: cell-based; conditions: Homo sapiens
How it was run: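 HAP1 isogenic pair: endogenous MTAP vs MTAP-null. Readout SDMA by in-cell western; IC50 per line. Ratio ≥3 fold = MTAP-selective.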

HAP1 MTAP-deleted = experiment: SDMA in-cell western assay, HAP1 MTAP-deleted cell line; assay type: cell-based; conditions: for IC50: Homo sapiens, HAP1 MTAP-deleted cell line; for MTAP Intact/Deleted Ratio: IC50 ratio HAP1 MTAP-intact / HAP1 MTAP-deleted
How it was run: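 IC50 from SDMA in-cell western; HAP1 line lacking MTAP (null), paired isogenically with MTAP-intact HAP1 expressing endogenous MTAP.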

PRMT5 [2] = biological target: T1, PRMT5; experiment: PRMT5 IC50 assay with no cofactor; assay type: biochemical; conditions: read-out: No Co-factor IC50
How it was run: as §1

PRMT5 [3] = biological target: T1, PRMT5; experiment: PRMT5 IC50 assay in the presence of SAM as cofactor; assay type: biochemical
How it was run: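 Human PRMT5 inhibition, IC50 in μM; cofactor varied (SAM / MTA / none).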

T1 sequence (O14744 whole entry): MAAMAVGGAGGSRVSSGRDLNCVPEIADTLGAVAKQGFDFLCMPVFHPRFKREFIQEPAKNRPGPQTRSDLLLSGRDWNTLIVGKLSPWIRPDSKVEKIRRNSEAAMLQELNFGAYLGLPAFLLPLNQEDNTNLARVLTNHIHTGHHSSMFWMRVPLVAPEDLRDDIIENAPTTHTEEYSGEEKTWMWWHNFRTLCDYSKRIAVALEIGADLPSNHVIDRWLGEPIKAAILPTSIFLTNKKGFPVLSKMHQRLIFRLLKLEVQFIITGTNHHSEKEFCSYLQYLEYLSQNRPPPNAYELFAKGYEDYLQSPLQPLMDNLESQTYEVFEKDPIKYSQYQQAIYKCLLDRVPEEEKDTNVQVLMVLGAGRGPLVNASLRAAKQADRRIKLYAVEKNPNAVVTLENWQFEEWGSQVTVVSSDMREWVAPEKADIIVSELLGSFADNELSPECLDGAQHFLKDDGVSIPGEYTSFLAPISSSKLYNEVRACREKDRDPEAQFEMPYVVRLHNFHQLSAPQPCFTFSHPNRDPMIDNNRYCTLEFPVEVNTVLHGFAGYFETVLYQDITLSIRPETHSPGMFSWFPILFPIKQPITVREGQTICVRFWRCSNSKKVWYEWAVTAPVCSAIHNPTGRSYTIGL
T1 sequence (Q9BQA1 whole entry partner): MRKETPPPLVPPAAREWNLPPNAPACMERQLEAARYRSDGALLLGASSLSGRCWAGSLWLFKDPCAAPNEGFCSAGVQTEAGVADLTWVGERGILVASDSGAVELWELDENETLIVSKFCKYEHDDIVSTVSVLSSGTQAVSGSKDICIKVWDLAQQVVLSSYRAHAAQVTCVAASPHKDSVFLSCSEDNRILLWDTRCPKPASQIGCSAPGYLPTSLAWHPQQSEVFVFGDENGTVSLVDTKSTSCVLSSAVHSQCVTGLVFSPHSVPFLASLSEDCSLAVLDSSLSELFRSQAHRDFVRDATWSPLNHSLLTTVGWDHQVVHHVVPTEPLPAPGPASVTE

IC50 (PRMT5 [1]) [µM] | IC50 (HAP1 MTAP-intact) [µM] | IC50 (HAP1 MTAP-deleted) [µM] | IC50 (PRMT5 [2]) [µM] | IC50 (PRMT5 [3]) [µM] | Compound | SAM/MTA Ratio (PRMT5 [1]) | MTAP Intact/Deleted Ratio (HAP1 MTAP-deleted)
0.05 to 0.5 | ≥ 10 | 1 to 10 | 0.5 to 5 | 0.05 to 0.5 | CC(=O)N1CC(Nc2cc(C(=O)NC[C@H](O)CN3CCc4c(ccc(OCc5cnco5)c4Cl)C3)nc(N3CCOCC3)n2)C1 [Compound 352, (S)-6-((1-acetylazetidin-3-yl)amino)-N-(3-(5-chloro-6-(oxazol-5-ylmethoxy)-3A-dihydroisoquinolin-2(1H)-yl)-2-hydroxypropyl)-2-morpholinopyrimidine-4-carboxamide] | A (a Ki ratio greater than or equal to 10 fold between the Ki in the presence of SAM and the Ki in the presence of MTA) | C* (an IC50 ratio of less than 3 fold between the IC50 in the HAP1 MTAP-intact cell line and the HAP1 MTAP-deleted cell line)
0.05 to 0.5 | 1 to 10 | 1 to 10 | 0.5 to 5 | 0.05 to 0.5 | CCN1CCN(c2nc(NC3COC3)cc(C(=O)NC[C@H](O)CN3CCc4cc(OCc5cnco5)ccc4C3)n2)CC1 [Compound 353] | A (a Ki ratio greater than or equal to 10 fold between the Ki in the presence of SAM and the Ki in the presence of MTA) | C* (an IC50 ratio of less than 3 fold between the IC50 in the HAP1 MTAP-intact cell line and the HAP1 MTAP-deleted cell line)
0.05 to 0.5 | ≥ 10 | ≥ 10 | ≥ 5 | 0.5 to 5 | O=C(NC[C@H](O)CN1CCc2cc(OCc3cnco3)ccc2C1)c1cncc(NC2CCOC2)c1 (stereo partly drawn) [Compound 355, N—((S)-2-hydroxy-3-(6-(oxazol-5-ylmethoxy)-3,4-dihydroisoquinolin-2(1H)-yl)propyl)-5-((tetrahydrofuran-3-yl)amino)nicotinamide] | A (a Ki ratio greater than or equal to 10 fold between the Ki in the presence of SAM and the Ki in the presence of MTA) | C* (an IC50 ratio of less than 3 fold between the IC50 in the HAP1 MTAP-intact cell line and the HAP1 MTAP-deleted cell line)
0.05 to 0.5 | ≥ 10 | ≥ 10 | ≥ 5 | 0.05 to 0.5 | Cc1c(OCc2cnco2)ccc2c1CCN(C[C@@H](O)CNC(=O)c1ccnc(NC3CCCC3)c1)C2 [Compound 356, 2-(cyclopentylamino)-N-[(2S)-2-hydroxy-3-{5-methyl-6-[(1,3-oxazol-5-yl)methoxy]-1,2,3,4-tetrahydroisoquinolin-2-yl}propyl]pyridine-4-carboxamide] | A (a Ki ratio greater than or equal to 10 fold between the Ki in the presence of SAM and the Ki in the presence of MTA) | C* (an IC50 ratio of less than 3 fold between the IC50 in the HAP1 MTAP-intact cell line and the HAP1 MTAP-deleted cell line)
0.05 to 0.5 | ≥ 10 | < 1 | 0.5 to 5 | 0.05 to 0.5 | CC(=O)N1CC(Nc2cc(C(=O)NC[C@H](O)CN3CCc4c(ccc(OCc5cnco5)c4Cl)C3)nc(C(C)(C)C)n2)C1 [Compound 360, (S)-6-((1-acetylazetidin-3-yl)amino)-2-(tert-butyl)-N-(3-(5-chloro-6-(oxazol-5-ylmethoxy)-3,4-dihydroisoquinolin-2(1H)-yl)-2-hydroxypropyl)pyrimidine-4-carboxamide] | A (a Ki ratio greater than or equal to 10 fold between the Ki in the presence of SAM and the Ki in the presence of MTA) | A* (an IC50 ratio greater than or equal to 10 fold between the IC50 in the HAP1 MTAP-intact cell line and the HAP1 MTAP-deleted cell line)
0.5 to 5 | ≥ 10 | ≥ 10 | ≥ 5 | 0.5 to 5 | O=C(NC[C@H](O)CN1CCc2c(ccc(OCc3cnco3)c2Br)C1)c1cc(NC2CCC2)ncn1 [Compound 361, (S)—N-(3-(5-bromo-6-(oxazol-5-ylmethoxy)-3,4-dihydroisoquinolin-2(1H)-yl)-2-hydroxypropyl)-6-(cyclobutylamino)pyrimidine-4-carboxamide] | A (a Ki ratio greater than or equal to 10 fold between the Ki in the presence of SAM and the Ki in the presence of MTA) | C* (an IC50 ratio of less than 3 fold between the IC50 in the HAP1 MTAP-intact cell line and the HAP1 MTAP-deleted cell line)

The remaining lines, values behind:

Compound | IC50 (PRMT5 [1]) [µM] | IC50 (HAP1 MTAP-intact) [µM] | IC50 (HAP1 MTAP-deleted) [µM] | IC50 (PRMT5 [2]) [µM] | IC50 (PRMT5 [3]) [µM] | SAM/MTA Ratio (PRMT5 [1]) | MTAP Intact/Deleted Ratio (HAP1 MTAP-deleted)
Cc1ncoc1COc1ccc2c(c1Br)CCN(C[C@@H](O)CNC(=O)c1cccc(NC3CCC3)c1)C2 [Compound 354, (S)—N-(3-(5-bromo-6-((4-methyloxazol-5-yl)methoxy)-3,4-dihydroisoquinolin-2(1H)-yl)-2-hydroxypropyl)-3-(cyclobutylamino)benzamide] | 0.5 to 5 | ≥ 10 | ≥ 10 | ≥ 5 | 0.5 to 5 | – | C* (an IC50 ratio of less than 3 fold between the IC50 in the HAP1 MTAP-intact cell line and the HAP1 MTAP-deleted cell line)
O=C(NC[C@H](O)CN1CCc2c(ccc(OCc3cnco3)c2Cl)C1)c1ccnc(NC2CC(F)(F)C2)c1 [Compound 357, (S)—N-(3-(5-chloro-6-(oxazol-5-ylmethoxy)-3,4-dihydroisoquinolin-2(1H)-yl)-2-hydroxypropyl)-2-((3,3-difluorocyclobutyl)amino)isonicotinamide] | 0.05 to 0.5 | ≥ 10 | ≥ 10 | ≥ 5 | 0.5 to 5 | A (a Ki ratio greater than or equal to 10 fold between the Ki in the presence of SAM and the Ki in the presence of MTA) | C* (an IC50 ratio of less than 3 fold between the IC50 in the HAP1 MTAP-intact cell line and the HAP1 MTAP-deleted cell line)
Cc1ncoc1COc1ccc2c(c1Br)CCN(C[C@@H](O)CNC(=O)c1cc(NC3CCCC3)ncn1)C2 [Compound 358, (S)—N-(3-(5-bromo-6-((4-methyloxazol-5-yl)methoxy)-3,4-dihydroisoquinolin-2(1H)-yl)-2-hydroxypropyl)-6-(cyclopentylamino)pyrimidine-4-carboxamide] | 0.5 to 5 | ≥ 10 | ≥ 10 | ≥ 5 | 0.5 to 5 | A (a Ki ratio greater than or equal to 10 fold between the Ki in the presence of SAM and the Ki in the presence of MTA) | C* (an IC50 ratio of less than 3 fold between the IC50 in the HAP1 MTAP-intact cell line and the HAP1 MTAP-deleted cell line)
O=C(NC[C@H](O)CN1CCc2c(ccc(OCc3cnco3)c2Cl)C1)c1cncc(NC2CCOC2)c1 (stereo partly drawn) [Compound 359, N—((S)-3-(5-chloro-6-(oxazol-5-ylmethoxy)-3N-dihydroisoquinolin-2(1H)-yl)-2-hydroxypropyl)-5-((tetrahydrofuran-3-yl)amino)nicotinamide] | 0.5 to 5 | ≥ 10 | 1 to 10 | ≥ 5 | 0.5 to 5 | A (a Ki ratio greater than or equal to 10 fold between the Ki in the presence of SAM and the Ki in the presence of MTA) | C* (an IC50 ratio of less than 3 fold between the IC50 in the HAP1 MTAP-intact cell line and the HAP1 MTAP-deleted cell line)
